# Entries after “also recorded” stand apart in the source; their conditions may differ. *1 amine or outer side, *2 acyl side, *3 side chain or, on linkers, in order; H or OH if unused. Where a SMILES comes first, the peptide text is derived from it. Bridges are numbered along the chain shown (N, C = ends). [ ]: non-standard residue; d: D form. The star is where a group is joined. Orn(4R-OH,5R-OH) = O=C([C@H](C[C@@H](O)[C@@H](O)N[*:3])N[*:1])[*:2]; Tetradecanoyl(10R,12S-Me2) = CC[C@H](C)C[C@H](C)CCCCCCCCC(=O)*; hTyr(3S-OH,4S-OH) = N[C@H](C(=O)O)[C@H](O)[C@@H](O)c1ccc(O)cc1; Gln(3R-OH) = NC(=O)C[C@@H](O)[C@H](N)C(=O)O; Pro(3S-OH) = O=C(O)[C@H]1NCC[C@@H]1O; Hyp = O=C(O)[C@@H]1C[C@@H](O)CN1
# Assays:
# [1] = tested on: TMR-cC0-C2 (C0-C2 fragment of human cMyBP-C); assay: FLT-TMR concentration-response assay (FLT of TMR on cC0-C2, no actin); format: binding; conditions: 60 μM compound
# Procedure, shortened: (§1)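 Hits tested at eight concentrations (0.5–100 μM) and read on a high-throughput fluorescence lifetime plate reader. Hill fits applied only under certain conditions.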
# [2] = tested on: PKA-phosphorylated TMR-cC0-C2 (cC0-C2#P); assay: FLT-TMR concentration-response assay, PKA-phosphorylated cC0-C2; format: binding, human; conditions: 60 μM compound
# Procedure, shortened: as §1
# [3] = tested on: TMR-fC1-C2 (C1-C2 of fast skeletal MyBP-C); assay: FLT-TMR concentration-response assay, fC1-C2; format: binding; conditions: 60 μM compound
# Procedure, shortened: as §1
# [4] = tested on: FMAL-actin/TMR-cC0-C2 interaction; assay: FLT-FRET concentration-response assay, FMAL-actin plus TMR-cC0-C2; format: binding, human; conditions: unphosphorylated cC0-C2
# Procedure, shortened: as §1
# [5] = tested on: FMAL-actin/PKA-phosphorylated TMR-cC0-C2 interaction; assay: FLT-FRET concentration-response assay, FMAL-actin plus PKA-phosphorylated TMR-cC0-C2; format: binding, human; conditions: phosphorylated cC0-C2
# Protocol: Compounds identified as initial hits were further examined to determine the concentration–response curves for seven conditions ([1]): FMAL-actin alone identified actin-binding compounds that alter the FLT of FMAL-actin ([2]).
# Fluorescence lifetime (FLT) measurements were acquired using a high-throughput FLT plate reader (Fluorescence Innovations, Inc) ([14], [27]), provided by Photonic Pharma LLC. […] The observed waveforms were analyzed as described previously ([15], [28]).
# The primary hits were dissolved in DMSO to make a 10 mM stock solution, which was serially diluted in 96-well mother plates. Hits were screened at eight concentrations (0.5–100 μM). […] Compounds (1 μl) were transferred from the mother plates into 384-well plates using a Mosquito HV liquid handler (TTP Labtech Ltd, Hertfordshire, UK). The same procedure of dispensing as for the pilot screening was applied in the concentration-response assays. Concentration dependence of the FLT-FRET (E/EDMSO) or FLT-TMR (Δτ) change data was fit to a Hill equation only under certain conditions to help guide the eye (Fig. 4).
# [6] = tested on: FMAL-actin/TMR-fC1-C2 interaction; assay: FLT-FRET concentration-response assay, FMAL-actin plus TMR-fC1-C2; format: binding
# Procedure, shortened: as §1
# [7] = tested on: FMAL-actin plus TMR-cC0-C2; assay: Selleck library HTS, 473 nm excitation (FLT of FMAL-actin with TMR-cC0-C2, FLT-FRET); format: binding, human
# Procedure, shortened: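 Donor fluorescence lifetime was then recorded. Waveforms were fit to a single exponential, and ΔFLT was obtained after a moving-median plate-gradient correction (half-row window), rescaled by the median DMSO lifetime.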
# TMR-cC0-C2 = assay: Selleck library HTS, 532 nm excitation (FLT of TMR-cC0-C2 in presence of FMAL-actin); format: binding, human
# [8] = tested on: rabbit fast skeletal (psoas) myofibrils; assay: Skeletal myofibril ATPase assay; format: biochemical; conditions: 50 μM compound, pCa 8 to pCa 4
# Procedure, shortened: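 Rabbit psoas myofibrils (0.01 mg/ml) in 50 mM MOPS, 100 mM KCl, 5 mM MgCl2, 1 mM EGTA, pH 7.0, preincubated 20 min at 23 °C with 50 μM compound; 2.1 mM ATP start. NADH-coupled ATPase rate at 340 nm over 30 min, across pCa 4.0–8.0; pCa50 from Hill fit, 1% DMSO control.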
# [9] = robust z-score, hit threshold ±4, 30 μM compound
structure (smiles),measurement,setting,value
"CC[C@H](C)C[C@H](C)CCCCCCCCC(=O)N[C@H]1C[C@@H](O)[C@@H](O)NC(=O)[C@@H]2[C@@H](O)CCN2C(=O)[C@H]([C@H](O)CC(N)=O)NC(=O)[C@H]([C@H](O)[C@@H](O)c2ccc(O)cc2)NC(=O)[C@@H]2C[C@@H](O)CN2C(=O)[C@H]([C@@H](C)O)NC1=O [Pneumocandin B0] ({Tetradecanoyl(10R,12S-Me2)}-[Orn(4R-OH,5R-OH)]T[Hyp][hTyr(3S-OH,4S-OH)][Gln(3R-OH)][Pro(3S-OH)]; lactam 1-C)",cC0-C2/cC0-C2#P (ratio of FLT changes),[1],0.9
same,"cC0-C2 FLT change (% change from DMSO, FLT of TMR-MyBP-C)",[1],12.4%
same,"cC0-C2#P FLT change (% change from DMSO, FLT of TMR-MyBP-C)",[2],13.2%
same,cC0-C2/fC1-C2 (ratio of FLT changes),[3],1.1
same,"fC1-C2 FLT change (% change from DMSO, FLT of TMR-MyBP-C)",[3],11.4%
same,effect on FLT-FRET / binding between FMAL-actin and TMR-cC0-C2 (in words),[4],increased the binding
same,effect on FLT-FRET / binding between FMAL-actin and PKA-phosphorylated TMR-cC0-C2 (in words),[5],decreasing the binding
same,effect on FLT-FRET / binding between FMAL-actin and TMR-fC1-C2 (in words),[6],increased the binding
same,increase in actin binding (fC1-C2-actin FRET),[6]; skeletal MyBP-C,24%
same,"473-nm Δτ, Repeat 1","[7]; initial screen, 30 μM compound",-0.050 ns
same,"473-nm Δτ, Repeat 2","[7]; initial screen, 30 μM compound",-0.053 ns
same,473-nm z-score (based on avg Δτ),[7]; [9],-2.83
same,"532-nm Δτ, Repeat 1","TMR-cC0-C2; initial screen, 30 μM compound",0.179 ns
same,"532-nm Δτ, Repeat 2","TMR-cC0-C2; initial screen, 30 μM compound",0.149 ns
same,532-nm z-score (based on avg Δτ),TMR-cC0-C2; [9],10.04
same,effect on skeletal MF ATPase activity (in words),[8],inhibitory effect; also recorded: affected ATPase

# From PMC10692721, “Drug discovery for heart failure targeting myosin-binding protein C” (The Journal of Biological Chemistry, 2023)
